A short description of data set [1]: Permeability test using Caco-2 cell model. To be noted: human. The method, then: (§1) Permeability Test: The permeability of SOMCL-9112 was evaluated using Caco-2 cell model.
(Caco-2 monolayers are a common model of the intestinal barrier.)

For data set [2], the system named is P-gp. In words: Permeability test using Caco-2 cell model. Particulars: human. The method, then:
as §1

Data set [3] is described as follows: Solubility of SOMCL-9112 API and solid dispersions in water and buffers (37° C., shaking). The data set is classed as physicochemical. To be noted: for solubility at 8 h: 37 °C, thermodynamic from solid. The method, then: The SOMCL-9112 solid dispersion prepared in this Example and the SOMCL-9112 API powder were dissolved in water, simulated gastric fluid (pH 1.2), phosphate buffer (pH 4.5) and simulated intestinal fluid (pH6.8) to measure the solubility of SOMCL-9112 (37° C., shaking at 100 rpm for 8 h). The solid dispersion was sampled at 4 h and 8 h.
The SOMCL-9112 solid dispersion prepared in this example was dissolved in water, simulated gastric fluid (pH 1.2), phosphate buffer (pH 4.5) and simulated intestinal fluid (pH6.8) to measure the solubility of SOMCL-9112 (37° C., shaking at 100 rpm for 8 h).
The SOMCL-9112 solid dispersion prepared in this example was dissolved in a simulated intestinal fluid (pH6.8) to measure the solubility of SOMCL-9112 (37° C., shaking at 100 rpm for 8 h).

Data set [4] can be described thus: Equilibrium solubility test (24 h, HPLC). To be noted: thermodynamic from solid; for solubility thermodynamic at 24 h: 37° C., 100 rpm. The data set is classed as physicochemical. The method, then: Equilibrium Solubility Test: The solubility of SOMCL9112 in a series of solvents was investigated. The main solvents included water, pH 1.2 simulated gastric fluid, pH 4.5 phosphate buffer, and pH 6.8 simulated intestinal fluid. 0.5 g of SOMCL-9112 API was taken and added to 100 ml of each of the above solvents. The mixture was shaken at 37° C. shaker at 100 rpm for 24 h. The supernatant was centrifuged at 8000 rpm for 15 min and the concentration of SOMCL-9112 was determined by HPLC.

Data set [5] relates to Caco-2 cell model. Briefly: in vitro. The method, then: as §1
In data set [6] the target is poly-ADP-ribose polymerase (PARP) (Homo sapiens, UniProt P09874). Particulars: in words, no data shown; cited from earlier work.

Converted amounts (≈) assume the structure as drawn.

poly-ADP-ribose polymerase (PARP), sequence (P09874 whole entry): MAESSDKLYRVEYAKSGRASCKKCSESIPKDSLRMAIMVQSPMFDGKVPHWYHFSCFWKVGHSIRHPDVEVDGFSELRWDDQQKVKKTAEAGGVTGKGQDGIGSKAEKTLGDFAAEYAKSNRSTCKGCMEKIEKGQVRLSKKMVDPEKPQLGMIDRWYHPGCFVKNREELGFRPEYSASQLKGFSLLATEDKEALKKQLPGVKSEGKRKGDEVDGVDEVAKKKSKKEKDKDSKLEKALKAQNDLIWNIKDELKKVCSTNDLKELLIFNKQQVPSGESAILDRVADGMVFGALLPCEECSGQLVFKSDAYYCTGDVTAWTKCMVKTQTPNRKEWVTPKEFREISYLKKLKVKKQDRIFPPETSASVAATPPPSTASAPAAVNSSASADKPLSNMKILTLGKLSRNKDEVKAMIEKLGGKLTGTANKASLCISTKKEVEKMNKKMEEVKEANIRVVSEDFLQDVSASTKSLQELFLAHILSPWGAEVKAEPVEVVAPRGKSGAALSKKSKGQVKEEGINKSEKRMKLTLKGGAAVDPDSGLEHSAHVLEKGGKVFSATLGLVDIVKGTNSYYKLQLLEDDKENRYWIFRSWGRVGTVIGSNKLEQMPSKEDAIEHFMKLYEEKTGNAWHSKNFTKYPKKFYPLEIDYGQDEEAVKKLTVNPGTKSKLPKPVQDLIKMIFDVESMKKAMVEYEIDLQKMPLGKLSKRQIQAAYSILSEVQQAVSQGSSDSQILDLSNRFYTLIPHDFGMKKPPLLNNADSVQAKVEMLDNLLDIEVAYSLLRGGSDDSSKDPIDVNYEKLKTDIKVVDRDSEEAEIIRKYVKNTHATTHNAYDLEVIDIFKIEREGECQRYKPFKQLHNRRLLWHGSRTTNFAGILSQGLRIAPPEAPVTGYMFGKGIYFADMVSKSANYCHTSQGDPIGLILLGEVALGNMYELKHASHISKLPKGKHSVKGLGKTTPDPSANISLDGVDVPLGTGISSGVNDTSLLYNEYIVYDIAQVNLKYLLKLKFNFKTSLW

In data set [1], `C[C@H]1O[C@@H](O[C@H]2[C@@H](O)C[C@H](O[C@H]3[C@@H](O)C[C@H](O[C@H]4CC[C@@]5(C)[C@H](CC[C@@H]6[C@@H]5C[C@@H](O)[C@]5(C)[C@@H](C7=CC(=O)OC7)CC[C@]65O)C4)O[C@@H]3C)O[C@@H]2C)C[C@H](O)[C@@H]1O` [Digoxin, reference compound] gave an apparent permeability from apical to basolateral (Papp A→B) of 0.09 ± 0.01 ×10⁻⁶ cm/s and a Papp B→A of 9.88 ± 1.41 ×10⁻⁶ cm/s. In addition, in data set [2], the efflux ratio was 109.
In data set [3] (pH 1.2, simulated gastric fluid), `CC1CN(C(=O)c2cc(Cc3n[nH]c(=O)c4ccccc34)ccc2F)Cc2nnc(C(F)(F)F)n21` (stereo not drawn) [SOMCL-9112, 4-(4-fluoro-3-(5-methyl-3-(trifluoromethyl)-5,6,7,8-4H-[1,2,4]triazolo[4,3-a]piperazine-7-carbonyl)benzyl)phthalazin-1(2H)-one] registered a solubility at 8 h of 10.5 µg/mL (≈ 21.6 µM). This molecule yielded a solubility at 8 h in data set [3] (pH 4.5, aqueous buffer) of 18.9 µg/mL (≈ 38.9 µM). Further, the solubility at 8 h in data set [3] (pH 6.8, fassgf or other biorelevant) was determined as 15.4 µg/mL (≈ 31.7 µM). For the same molecule, the solubility at 8 h in data set [3] (water) came to 15.8 µg/mL (≈ 32.5 µM). Also, the solubility in data set [3] (fassgf or other biorelevant) was approximately 10 µg/mL (≈ 20.6 µM). Also, in data set [4] (37 °C, aqueous buffer, pH 1.2-6.8 buffer saline solution), the solubility (thermodynamic) is less than 100 µg/mL. Moreover, the thermodynamic solubility at 24 h in data set [4] (aqueous buffer, pH 4.5 phosphate buffer) was 18.6 µg/mL (≈ 38.2 µM). The molecule further returned a thermodynamic solubility at 24 h in data set [4] (fassgf or other biorelevant, pH 6.8 simulated intestinal fluid) of 16.2 µg/mL (≈ 33.3 µM). The molecule also registered a thermodynamic solubility at 24 h in data set [4] (pH 1.2 simulated gastric fluid) of 10.3 µg/mL (≈ 21.2 µM). For the same molecule, in data set [4] (water), the thermodynamic solubility at 24 h came to 14.8 µg/mL (≈ 30.4 µM). Further, in data set [1] (Caco-2), the Papp A→B at 2 μM is 0.72 ×10⁻⁶ cm/s, the Papp A→B at 10 μM worked out at 0.26 ± 0.03 ×10⁻⁶ cm/s, the apparent permeability from apical to basolateral (Papp A→B) at 50 μM was determined as 0.34 ± 0.06 ×10⁻⁶ cm/s and the basolateral-to-apical permeability (Papp B→A) at 2 μM is 16.3 ± 0.34 ×10⁻⁶ cm/s. In data set [1] (Caco-2), this molecule had a Papp B→A at 10 μM of 16.1 ± 1.05 ×10⁻⁶ cm/s and a Papp B→A at 50 μM of 18.7 ± 0.28 ×10⁻⁶ cm/s. For the same molecule, in data set [5], the Permeability characteristic result is given as “low permeability characteristic”. In addition, in data set [2] (Caco-2), the efflux ratio at 2 μM came out at 22.6, the efflux ratio at 10 μM is 61.9 and the efflux ratio at 50 μM worked out at 54.5. Besides, the “Inhibitory effect on PARP” value in data set [6] was “significant inhibitory effect”.
`CC(C)NCC(O)COc1cccc2ccccc12` (stereo not drawn) [Propranolol, reference compound]: in data set [1], the Papp A→B was determined as 10.5 ± 1.97 ×10⁻⁶ cm/s and the apparent permeability from basolateral to apical (Papp B→A) was determined as 7.57 ± 0.6 ×10⁻⁶ cm/s. Moreover, in data set [2], the efflux ratio was 0.72.

As usually defined, the Papp A→B is the apparent permeability from the apical to the basolateral side of a cell layer. The term Papp B→A denotes the apparent permeability from the basolateral to the apical side of a cell layer. In general, efflux ratio refers to a quotient of directional permeabilities that is used to spot active efflux. Broadly, the solubility is how much of the substance goes into solution per volume. Low values mean a poorly soluble substance, high ones a readily soluble substance. A word on the solubility (thermodynamic): it is the concentration in solution at equilibrium with solid.

These data come from US11191761B2, “SOMCL-9112 solid dispersion and preparation method thereof and SOMCL-9112 solid preparation containing SOMCL-9112 solid dispersion” (SHANGHAI INSTITUTE OF MATERIA MEDICA, CHINESE ACADEMY OF …, priority 2015, dated 2021).
